Structures can show the parent of a compound that is named as a salt. Each block holds one molecule with its values, some of them ahead of it.
Key:
[1] = molecular target: Human or Rat Histamine H3 Receptor (UniProt Q9Y5N1); assay: Binding assay for human or rat histamine H3 receptor ([3H] R-α-methylhistamine displacement); settings: [3H] R-α-methylhistamine 3.0 nM, rat brain frontal cortex or recombinant human receptor in CHO cells (source for table not stated)
Procedure: Binding and Functional Assays for Human or Rat Histamine H3 Receptor
Compounds can be evaluated according to the following procedures.
• Receptor source: Rat brain frontal cortex or recombinant human cDNA expressed in CHO cells • Radioligand: [^3H] R-α-methylhistamine • Final ligand concentration—[3.0 nM] • Non-specific determinant: R-α-methylhistamine (100 μM) • Reference compound: R-α-methylhistamine • Positive control: R-α-methylhistamine Incubation Conditions:
Increasing concentrations of test compounds or standard were incubated with membrane receptors and radioligand in 5 mM MgCl2 and 50 mM TRIS-HCl (pH 7.4) for 60 minutes at room temperature. The reaction was terminated by rapid vacuum filtration onto the glass fiber filters. Radioactivity trapped onto the filters was determined and compared to the control values in order to ascertain any interactions of the test compound(s) with either cloned human or rat receptor binding site.

[2] = Rodent pharmacokinetic study; assay type: in vivo; settings: rat, whole blood, Wistar rats/Male; for AUC(0-t) / Cmax / Tmax / half-life: blood; for bioavailability: 3 mg/kg Per-Oral vs 1 mg/kg Intravenous
Procedure: Male Wistar rats (230-280 grams) were used as experimental animals. Three to five animals were housed in each cage. One day prior to dosing day, male wistar rats (225-250 grams) were anesthetized with isoflurane for surgical placement of jugular vein catheter. Animals were kept fasted over night and maintained on a 12 hours light/dark cycle. Three rats were dosed with compounds of formula (I) orally (3 mg/Kg) and intravenously (1 mg/kg) in two separate set of animals (n=3 rats/group). At each time point, blood was collected by jugular vein. Blood was stored frozen at […] until analysis. The concentrations of the compounds of formula (I) in blood were determined using LC-MS/MS method. Schedule time points: Pre dose 0.08 (only for i.v.) 0.25, 0.5, 1, 2, 4, 6, 8, and 24 hours after dosing (n=3). The compounds of formula (I) were quantified in blood by validated LC-MS/MS method using acetonitrile precipitation technique. The compounds of formula (I) were quantified in the calibration range of 1-1000 ng/mL in blood. Study samples were analyzed using calibration samples in the batch and quality control samples spread across the batch. Pharmacokinetic parameters Cmax, Tmax, AUCt, T1/2 and Bioavailability were calculated by non-compartmental model using software Pheonix WinNonlin version 6.0.1.

[3] = Rodent brain penetration study; assay type: in vivo, Male Wistar rats; settings: Wister rats/Male, 3 mg/kg, Per-oral; for Kp at 1 h: male, Wistar, rat, brain homogenate / whole blood, po, 1 h post dose, read-out: Brain Penetration @ 1 h post dose (Cbrain/Cblood)
Procedure: Male Wistar rats (230-280 grams) were used as experimental animals. Three animals were housed in each cage. Animals were given water and food ad libitum throughout the experiment and maintained on a 12 hours light/dark cycle. Brain penetration was determined in discrete manner in rats. One day prior to dosing day, male wistar rats (225-250 grams) were acclimatized. After acclimatization, the rats were grouped according to the weight in each group, 3 animals were kept in individual cage and allowed free access to food and water. At each time point (05, 1, and 2 hrs) n=3 animals were used. The compounds of formula (I) were dissolved in water and administered orally at (free base) 3 mg/kg. Blood samples were removed via, cardiac puncture by using light ether anesthesia the animals were sacrificed to collect brain tissue. Brain samples were homogenized and stored frozen at −20° C. until analysis. The concentrations of the compounds of formula (I) in blood and brain were determined using LC-MS/MS method. The compounds of formula (I) were quantified in blood and brain homogenate by validated LC-MS/MS method using acetonitrile precipitation technique. The compounds of formula (I) were quantified in the calibration range of 1-1000 ng/mL in blood and brain homogenate. Study samples were analyzed using calibration samples in the batch and quality control samples spread across the batch. Extents of brain to blood ratios were calculated (Cbrain/Cblood).

Male Wister rats = assay: Object recognition task model; assay type: in vivo; settings: p.o.; for Exploration time mean ± S.E.M, Familiar object / Exploration time mean ± S.E.M, Novel object: choice trial T2
Procedure: The cognition enhancing properties of compounds of this invention were estimated using a model of animal cognition: the object recognition task model.
Male Wister rats (230-280 grams) were used as experimental animals. Four animals were housed in each cage. Animals were kept on 20% food deprivation before one day and given water ad libitum throughout the experiment and maintained on a 12 hours light/dark cycle. Also the rats were habituated to individual arenas for 1 hour in the absence of any objects.
One group of 12 rats received vehicle (1 mL/Kg) orally and another set of animals received compound of the formula (I) either orally or i.p., before one hour of the familiar (T1) and choice trial (T2).
The experiment was carried out in a 50×50×50 cm open field made up of acrylic. In the familiarization phase, (T1), the rats were placed individually in the open field for 3 minutes, in which two identical objects (plastic bottles, 12.5 cm height×5.5 cm diameter) covered in yellow masking tape alone (a1 and a2) were positioned in two adjacent corners, 10 cm. from the walls. After 24 hours of the (T1) trial for long-term memory test, the same rats were placed in the same arena as they were placed in T1 trial. Choice phase (T2) rats were allowed to explore the open field for 3 minutes in presence of one familiar object (a3) and one novel object (b) (Amber color glass bottle, 12 cm high and 5 cm in diameter). Familiar objects presented similar textures, colors and sizes. During the T1 and T2 trial, explorations of each object (defined as sniffing, licking, chewing or having moving vibrissae whilst directing the nose towards the object at a distance of less than 1 cm) were recorded separately by stopwatch. Sitting on an object was not regarded as exploratory activity, however, it was rarely observed.
T1 is the total time spent exploring the familiar objects (a1+a2).
T2 is the total time spent exploring the familiar object and novel object (a3+b).
The object recognition test was performed as described by Ennaceur, A., Delacour, J., 1988, A new one-trial test for neurobiological studies of memory in rats—Behavioural data, Behav. Brain Res., 31, 47-59.

SMILES: O=C(C=Cc1ccc(OC2CCN(C3CCC3)CC2)cc1)N1CCOCC1.O=C(O)/C=C/C(=O)O [Example 1, 3-[4-(1-Cyclobutylpiperidin-4-yloxy)phenyl]-1-(morpholin-4-yl)prop-2-ene-1-one fumarate salt]
Ki ([1]; fumarate salt): 1.32 nM
AUC(0-t) ([2]; 1 mg/kg, Intravenous): 208 ± 7 ng·h/mL
Cmax ([2]; 1 mg/kg, Intravenous): 214 ± 25 ng/mL
Tmax ([2]; 1 mg/kg, Intravenous): 4.8 min
half-life ([2]; 1 mg/kg, Intravenous): 63 ± 4.2 min
bioavailability [2]: 29 ± 2%
AUC(0-t) ([2]; 3 mg/kg, Per-Oral): 176 ± 10 ng·h/mL
Cmax ([2]; 3 mg/kg, Per-Oral): 106 ± 5 ng/mL
Tmax ([2]; 3 mg/kg, Per-Oral): 30 min
half-life ([2]; 3 mg/kg, Per-Oral): 93.6 ± 25.8 min
Brain Penetration @ 1 h post dose (Cbrain/Cblood) [3]: 1.40
Inference (Male Wister rats; 1 mg/kg): Active
Exploration time mean ± S.E.M, Familiar object (Male Wister rats; 1 mg/kg): 5.96 ± 1.03 s
Exploration time mean ± S.E.M, Novel object (Male Wister rats; 1 mg/kg): 14.86 ± 1.92 s

SMILES: O=C(C=Cc1ccc(OC2CCN(C3CCC3)CC2)cc1)N1CCCCC1 [Example 2, 3-[4-(1-Cyclobutylpiperidin-4-yloxy)phenyl]-1-(piperidin-1-yl)prop-2-ene-1-one hydrochloride salt]
Ki [1]: 1.82 nM

SMILES: O=C(C=Cc1ccc(OC2CCN(C3CCC3)CC2)cc1)N1CCS(=O)(=O)CC1 [Example 3, 3-[4-(1-Cyclobutylpiperidin-4-yloxy)phenyl]-1-(1,1-dioxothiomorpholin-4-yl)prop-2-ene-1-one hydrochloride salt]
Ki [1]: 1.4 nM

SMILES: CC(C)N1CCC(Oc2ccc(C=CC(=O)N3CCOCC3)c(F)c2)CC1 [Example 6, 3-[2-Fluoro-4-(1-isopropylpiperidin-4-yloxy)phenyl]-1-(morpholin-4-yl)prop-2-ene-1-one L(+)-Tartarate salt]
Ki [1]: 17.5 nM

SMILES: O=C(C=Cc1ccc(OC2CCN(C3CCC3)CC2)c(Br)c1)N1CCOCC1 [Example 20, 3-[3-Bromo-4-(1-cyclobutylpiperidin-4-yloxy)phenyl]-1-(morpholin-4-yl)prop-2-ene-1-one]
Ki [1]: 5.97 nM

SMILES: Cc1cc(OC2CCN(C3CCC3)CC2)ccc1C=CC(=O)N1CCOCC1 [Example 8, 3-[4-(1-Cyclobutylpiperidin-4-yloxy)-2-methylphenyl]-1-(morpholin-4-yl)prop-2-ene-1-one L(+)-Tartarate salt]
Ki [1]: 6.34 nM

SMILES: O=C(C=Cc1ccc(OC2CCN(C3CCC3)CC2)cc1F)N1CCOCC1.O=C(O)C(O)C(O)C(=O)O [Example 7, 3-[2-Fluoro-4-(1-cyclobutylpiperidin-4-yloxy)phenyl]-1-(morpholin-4-yl)prop-2-ene-1-one L(+)-Tartarate salt]
Ki [1]: 2.96 nM
AUC(0-t) ([2]; 1 mg/kg, Intravenous): 167 ± 47 ng·h/mL
Cmax ([2]; 1 mg/kg, Intravenous): 311 ± 110 ng/mL
Tmax ([2]; 1 mg/kg, Intravenous): 4.8 min
half-life ([2]; 1 mg/kg, Intravenous): 36 ± 12 min
bioavailability [2]: 9 ± 5%
AUC(0-t) ([2]; 3 mg/kg, Per-Oral): 49 ± 29 ng·h/mL
Cmax ([2]; 3 mg/kg, Per-Oral): 57 ± 36 ng/mL
Tmax ([2]; 3 mg/kg, Per-Oral): 15 min
half-life ([2]; 3 mg/kg, Per-Oral): 54 ± 36 min
Kp at 1 h [3]: 2.51

SMILES: CC(C)CN1CCC(Oc2ccc(C=CC(=O)N3CCOCC3)cc2)CC1 [Example 18, 3-[4-(1-Isobutylpiperidin-4-yloxy)phenyl]-1-(morpholin-4-yl)prop-2-ene-1-one]
Ki [1]: 32.4 nM

SMILES: O=C(C=Cc1ccc(OC2CCN(C3CCC3)CC2)cc1Cl)N1CCOCC1 [Example 25, 3-[2-Chloro-4-(1-cyclobutylpiperidin-4-yloxy)phenyl]-1-(morpholin-4-yl)prop-2-ene-1-one]
Ki [1]: 29.7 nM

SMILES: O=C(C=Cc1ccc(OC2CCN(C3CCC3)CC2)nc1)N1CCCCC1 [Example 4, 3-[2-(1-Cyclobutylpiperidin-4-yloxy)pyridin-5-yl]-1-(piperidin-1-yl)prop-2-ene-1-one L(+)-Tartarate salt]
Ki [1]: 7.82 nM

SMILES: O=C(C=Cc1ccc(OC2CCN(C3CCC3)CC2)nc1)N1CCOCC1.O=C(O)C(O)C(O)C(=O)O [Example 5, 3-[2-(1-Cyclobutylpiperidin-4-yloxy)pyridin-5-yl]-1-(morpholin-4-yl)prop-2-ene-1-one L(+)-Tartarate salt]
Ki [1]: 7.9 nM
AUC(0-t) ([2]; 1 mg/kg, Intravenous): 173 ± 13 ng·h/mL
Cmax ([2]; 1 mg/kg, Intravenous): 220 ± 10 ng/mL
Tmax ([2]; 1 mg/kg, Intravenous): 4.8 min
half-life ([2]; 1 mg/kg, Intravenous): 36 ± 12 min
bioavailability [2]: 35 ± 5%
AUC(0-t) ([2]; 3 mg/kg, Per-Oral): 184 ± 25 ng·h/mL
Cmax ([2]; 3 mg/kg, Per-Oral): 128 ± 6 ng/mL
Tmax ([2]; 3 mg/kg, Per-Oral): 25.2 ± 8.4 min
half-life ([2]; 3 mg/kg, Per-Oral): 66 ± 18 min
Kp at 1 h [3]: 0.92
Inference (Male Wister rats; 3 mg/kg): Active
Exploration time mean ± S.E.M, Familiar object (Male Wister rats; 3 mg/kg): 9.64 ± 2.22 s
Exploration time mean ± S.E.M, Novel object (Male Wister rats; 3 mg/kg): 15.53 ± 2.36 s

Other lines, results leading:

Ki [1]: 17 nM
SMILES: CC(C)N1CCC(Oc2ccc(C=CC(=O)N3CCOCC3)cc2Br)CC1 [Example 19, 3-[3-Bromo-4-(1-isopropylpiperidin-4-yloxy)phenyl]-1-(morpholin-4-yl)prop-2-ene-1-one]

Ki [1]: 52.6 nM
SMILES: O=C(C=Cc1ccc(OC2CCN(CC3CC3)CC2)c(Br)c1)N1CCOCC1 [Example 22, 3-[3-Bromo-4-(1-cyclopropylmethylpiperidin-4-yloxy)phenyl]-1-(morpholin-4-yl)prop-2-ene-1-one]

Ki [1]: 13.1 nM
SMILES: Cc1cc(OC2CCN(C(C)C)CC2)ccc1C=CC(=O)N1CCOCC1 [Example 9, 3-[4-(1-Isopropylpiperidin-4-yloxy)-2-methylphenyl]-1-(morpholin-4-yl)prop-2-ene-1-one L(+)-Tartarate salt]

Ki [1]: 3.43 nM
AUC(0-t) ([2]; 1 mg/kg, Intravenous): 222 ± 33 ng·h/mL
Cmax ([2]; 1 mg/kg, Intravenous): 285 ± 46 ng/mL
Tmax ([2]; 1 mg/kg, Intravenous): 4.8 min
half-life ([2]; 1 mg/kg, Intravenous): 48 ± 3 min
bioavailability [2]: 58 ± 6%
AUC(0-t) ([2]; 3 mg/kg, Per-Oral): 387 ± 38 ng·h/mL
Cmax ([2]; 3 mg/kg, Per-Oral): 290 ± 32 ng/mL
Tmax ([2]; 3 mg/kg, Per-Oral): 15 min
half-life ([2]; 3 mg/kg, Per-Oral): 51 ± 8.4 min
Kp at 1 h [3]: 1.36
SMILES: O=C(C=Cc1ccc(OC2CCN(C3CCC3)CC2)cc1)N1CCOCC1.O=C(O)C(O)C(O)C(=O)O [Example 10, 3-[4-(1-Cyclobutylpiperidin-4-yloxy)phenyl]-1-(morpholin-4-yl)prop-2-ene-1-one L(+)-Tartarate salt]

Ki [1]: 77.2 nM
SMILES: COc1cc(C=CC(=O)N2CCOCC2)ccc1OC1CCN(C2CCC2)CC1 [Example 11, 3-[4-(1-Cyclobutylpiperidin-4-yloxy)-3-methoxyphenyl]-1-(morpholin-4-yl)prop-2-ene-1-one L(+)-Tartarate salt]
